Where a SMILES comes first, the peptide text is derived from it. [ ]: non-standard residue; d: D form. The star is where a group is joined. AMC = Cc1cc(=O)oc2cc(N*)ccc12; Cha = N[CH](CC1CCCCC1)C(=O)O; MeOSuc = COC(=O)CCC(=O)*; Orn = NCCC[C@H](N)C(=O)O; Cbz = O=C(OCc1ccccc1)*; Boc = CC(C)(C)OC(=O)*; Ms = CS(=O)(=O)*
What was measured:
Design in all cases: scale not given: the % may be the effect or the level left
[1] = molecular target: Prothrombin (Homo sapiens) (UniProt P00734); assay: Compound was evaluated for its inhibitory activity against thrombin at 100 uM concentration of substrate
[2] = molecular target: Urokinase-type plasminogen activator (Homo sapiens) (UniProt P00749); assay: Compound was evaluated for its inhibitory activity against urokinase at 100 uM concentration of substrate
[3] = molecular target: Cathepsin B (Homo sapiens) (UniProt P07858); assay: Compound was evaluated for its inhibitory activity against cathepsin B at 100 uM concentration of substrate
[4] = molecular target: T1, Neutrophil elastase (Homo sapiens) (UniProt P08246); assay: Compound was evaluated for its inhibitory activity against elastase at 100 uM concentration of substrate
T1 sequence (whole entry): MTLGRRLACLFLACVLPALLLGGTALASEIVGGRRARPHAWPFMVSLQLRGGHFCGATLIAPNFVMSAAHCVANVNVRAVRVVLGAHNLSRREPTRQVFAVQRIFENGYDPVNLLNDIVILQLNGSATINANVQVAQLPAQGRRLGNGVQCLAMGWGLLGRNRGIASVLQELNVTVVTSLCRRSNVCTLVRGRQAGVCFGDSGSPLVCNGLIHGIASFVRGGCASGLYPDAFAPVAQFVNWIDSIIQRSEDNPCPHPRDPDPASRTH

[5] = molecular target: Coagulation factor X (Homo sapiens) (UniProt P00742); assay: Compound was evaluated for its inhibitory activity against Coagulation factor X at 100 uM concentration of substrate
Coagulation factor X (Homo sapiens), sequence (P00742 41-179 limits assumed): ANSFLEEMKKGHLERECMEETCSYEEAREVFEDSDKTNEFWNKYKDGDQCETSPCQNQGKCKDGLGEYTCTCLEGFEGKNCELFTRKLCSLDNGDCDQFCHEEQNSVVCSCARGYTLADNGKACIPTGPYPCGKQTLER
Coagulation factor X (Homo sapiens), sequence (P00742 235-488 limits assumed): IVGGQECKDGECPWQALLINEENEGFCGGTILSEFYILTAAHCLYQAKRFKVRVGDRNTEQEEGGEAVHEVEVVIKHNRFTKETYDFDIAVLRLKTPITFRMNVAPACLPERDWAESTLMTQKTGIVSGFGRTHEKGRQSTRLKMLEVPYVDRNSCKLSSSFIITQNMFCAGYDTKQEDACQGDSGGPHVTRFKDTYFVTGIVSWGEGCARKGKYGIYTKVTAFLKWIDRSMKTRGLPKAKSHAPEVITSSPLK

Structure (SMILES): CC(=O)N[C@@H](Cc1ccccc1)C(=O)N1CCC[C@H]1C(=O)NC(CCCN=C(N)N)C(=O)Nc1ccc2c(C)cc(=O)oc2c1 (stereo partly specified)
- Control [1]: 5.4%

Structure (SMILES): CC(=O)N[C@@H](Cc1ccccc1)C(=O)N[C@@H](C)C(=O)N[C@@H](CCCN=C(N)N)C(=O)Nc1ccc2c(C)cc(=O)oc2c1 (Ac-Phe-Ala-Arg-{AMC})
- Control [2]: 2%

Structure (SMILES): CC(=O)N[C@@H](Cc1ccccc1)C(=O)N[C@@H](CCCN=C(N)N)C(=O)N[C@@H](CCCN=C(N)N)C(=O)Nc1ccc2c(C)cc(=O)oc2c1 (Ac-Phe-Arg-Arg-{AMC})
- Control [3]: 46%

Structure (SMILES): CC(=O)N[C@@H](Cc1ccccc1)C(=O)N[C@@H](CCCN=C(N)N)C(=O)N[C@@H](CCCCN)C(=O)Nc1ccc2c(C)cc(=O)oc2c1 (Ac-Phe-Arg-Lys-{AMC})
- Control [3]: 37%

Structure (SMILES): CC(=O)N[C@@H](Cc1ccccc1)C(=O)N[C@@H](CCC(=O)O)C(=O)N[C@H](C(=O)Nc1ccc2c(C)cc(=O)oc2c1)C(C)C (Ac-Phe-Glu-Val-{AMC})
- Control [4]: 1%

Structure (SMILES): CC(=O)NC(Cc1ccccc1)C(=O)NCC(=O)NC(CCCN=C(N)N)C(=O)Nc1ccc2c(C)cc(=O)oc2c1 (stereo not drawn) (Ac-Phe-Gly-Arg-{AMC}; configuration not given here)
- Control [2]: 3.9%

Structure (SMILES): CC(=O)N[C@@H](Cc1ccccc1)C(=O)N[C@@H](CCCCN)C(=O)N[C@@H](CCCN=C(N)N)C(=O)Nc1ccc2c(C)cc(=O)oc2c1 (Ac-Phe-Lys-Arg-{AMC})
- Control [3]: 43%

Structure (SMILES): CSCC[C@H](NC(=O)[C@H](Cc1ccccc1)NC(C)=O)C(=O)N[C@@H](CCCCN)C(=O)Nc1ccc2c(C)cc(=O)oc2c1 (Ac-Phe-Met-Lys-{AMC})
- Control [3]: 18%

Structure (SMILES): CC(=O)N[C@@H](Cc1ccccc1)C(=O)N1CCC[C@H]1C(=O)N[C@@H](C)C(=O)Nc1ccc2c(C)cc(=O)oc2c1 (Ac-Phe-Pro-Ala-{AMC})
- Control [4]: 0.8%

Structure (SMILES): CC(=O)N[C@@H](Cc1ccccc1)C(=O)N1CCC[C@H]1C(=O)N[C@H](C(=O)Nc1ccc2c(C)cc(=O)oc2c1)C(C)C (Ac-Phe-Pro-Val-{AMC})
- Control [4]: 11%

Structure (SMILES): CC(=O)N[C@@H](Cc1ccccc1)C(=O)N[C@@H](CO)C(=O)N[C@@H](CCCN=C(N)N)C(=O)Nc1ccc2c(C)cc(=O)oc2c1 (Ac-Phe-Ser-Arg-{AMC})
- Control [2]: 4.2%

Structure (SMILES): CC(=O)N[C@@H](Cc1ccccc1)C(=O)N[C@H](C(=O)N[C@H](C(=O)Nc1ccc2c(C)cc(=O)oc2c1)C(C)C)[C@@H](C)O (Ac-Phe-Thr-Val-{AMC})
- Control [4]: 1.6%

Structure (SMILES): CC(=O)N[C@@H](Cc1ccccc1)C(=O)N[C@@H](Cc1ccc(O)cc1)C(=O)N[C@@H](CCCN=C(N)N)C(=O)Nc1ccc2c(C)cc(=O)oc2c1 (Ac-Phe-Tyr-Arg-{AMC})
- Control [5]: 1.1%

Structure (SMILES): CC(=O)N[C@@H](Cc1ccccc1)C(=O)N[C@H](C(=O)N[C@@H](CCCCN)C(=O)Nc1ccc2c(C)cc(=O)oc2c1)C(C)C (Ac-Phe-Val-Lys-{AMC})
- Control [3]: 23%

Structure (SMILES): CC(=O)N[C@@H](Cc1ccccc1)C(=O)N[C@@H](CCCN)C(=O)N[C@@H](CCCN=C(N)N)C(=O)Nc1ccc2c(C)cc(=O)oc2c1 (Ac-Phe-[Orn]-Arg-{AMC})
- Control [3]: 18%

Structure (SMILES): CC(=O)N[C@@H](Cc1ccccc1)C(=O)N[C@@H](CCCN)C(=O)N[C@@H](CCCCN)C(=O)Nc1ccc2c(C)cc(=O)oc2c1 (Ac-Phe-[Orn]-Lys-{AMC})
- Control [3]: 21%

Structure (SMILES): Cc1cc(=O)oc2cc(NC(=O)[C@H](CCCN=C(N)N)NC(=O)[C@H](CCCCN)NC(=O)[C@H](CC(C)C)NC(=O)OC(C)(C)C)ccc12 (Boc-Leu-Lys-Arg-{AMC})
- Control [3]: 100%

Structure (SMILES): Cc1cc(=O)oc2cc(NC(=O)[C@H](CCCN=C(N)N)NC(=O)[C@@H]3CCCN3C(=O)CNC(=O)OCc3ccccc3)ccc12 (Cbz-Gly-Pro-Arg-{AMC})
- Control [1]: 100%

Structure (SMILES): Cc1cc(=O)oc2cc(NC(=O)C(CCCN=C(N)N)NC(=O)CNC(=O)C(N)CCC(=O)O)ccc12 (stereo not drawn) (H-Glu-Gly-Arg-{AMC}; configuration not given here)
- Control [2]: 100%

Structure (SMILES): COC(=O)CCC(=O)N[C@@H](C)C(=O)N[C@@H](C)C(=O)N1CCC[C@H]1C(=O)N[C@H](C(=O)Nc1ccc2c(C)cc(=O)oc2c1)C(C)C (MeOSuc-AAPV-{AMC})
- Control [4]: 100%

Structure (SMILES): Cc1cc(=O)oc2cc(NC(=O)C(CCCN=C(N)N)NC(=O)CNC(=O)C(CC3CCCCC3)NS(C)(=O)=O)ccc12 (stereo not drawn) (Ms-[Cha]-Gly-Arg-{AMC}; configuration not given here)
- Control [5]: 100%

Reference: ChEMBL document CHEMBL1132829, “Synthesis of a statistically exhaustive fluorescent peptide substrate library for profiling protease specificity” (Bioorg Med Chem Lett, 2000)
